Assay type in all cases: biochemical
Assay [1] concerns the target T1, TEC (Homo sapiens, UniProt P42680).
T1 sequence (P42680 1-631): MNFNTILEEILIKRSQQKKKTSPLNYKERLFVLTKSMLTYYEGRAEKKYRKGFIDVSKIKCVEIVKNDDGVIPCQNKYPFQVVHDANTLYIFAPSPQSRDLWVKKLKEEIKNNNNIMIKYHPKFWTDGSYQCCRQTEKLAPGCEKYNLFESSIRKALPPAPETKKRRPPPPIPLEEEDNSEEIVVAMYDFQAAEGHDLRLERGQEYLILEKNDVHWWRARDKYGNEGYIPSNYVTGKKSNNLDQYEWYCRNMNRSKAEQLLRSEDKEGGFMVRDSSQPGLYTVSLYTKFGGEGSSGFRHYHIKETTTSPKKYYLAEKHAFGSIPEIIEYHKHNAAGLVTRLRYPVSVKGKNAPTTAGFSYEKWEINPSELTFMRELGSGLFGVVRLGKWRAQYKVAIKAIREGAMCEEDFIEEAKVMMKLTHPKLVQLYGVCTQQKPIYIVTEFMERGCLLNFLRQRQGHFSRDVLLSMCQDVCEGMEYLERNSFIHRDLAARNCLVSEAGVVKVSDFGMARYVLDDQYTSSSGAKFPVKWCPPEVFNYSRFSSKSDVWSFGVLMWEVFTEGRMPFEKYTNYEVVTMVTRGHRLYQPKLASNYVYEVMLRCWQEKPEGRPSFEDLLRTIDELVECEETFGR
As to the kind of experiment: Inhibition of a panel of kinases (in vitro HotSpot kinase assay, 33P-ATP, 1 μM ATP). The note with it: for IC50: HotSpot kinase assay, 1 μM ATP. A digest of the protocol:
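Degree of kinase inhibition is determined in vitro using isolated enzymes, a matched substrate and radiolabelled ATP (1 μM).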

For assay [2], the target named is T2, panel of kinases (Homo sapiens, UniProt P51813).
T2 sequence (P51813 1-675): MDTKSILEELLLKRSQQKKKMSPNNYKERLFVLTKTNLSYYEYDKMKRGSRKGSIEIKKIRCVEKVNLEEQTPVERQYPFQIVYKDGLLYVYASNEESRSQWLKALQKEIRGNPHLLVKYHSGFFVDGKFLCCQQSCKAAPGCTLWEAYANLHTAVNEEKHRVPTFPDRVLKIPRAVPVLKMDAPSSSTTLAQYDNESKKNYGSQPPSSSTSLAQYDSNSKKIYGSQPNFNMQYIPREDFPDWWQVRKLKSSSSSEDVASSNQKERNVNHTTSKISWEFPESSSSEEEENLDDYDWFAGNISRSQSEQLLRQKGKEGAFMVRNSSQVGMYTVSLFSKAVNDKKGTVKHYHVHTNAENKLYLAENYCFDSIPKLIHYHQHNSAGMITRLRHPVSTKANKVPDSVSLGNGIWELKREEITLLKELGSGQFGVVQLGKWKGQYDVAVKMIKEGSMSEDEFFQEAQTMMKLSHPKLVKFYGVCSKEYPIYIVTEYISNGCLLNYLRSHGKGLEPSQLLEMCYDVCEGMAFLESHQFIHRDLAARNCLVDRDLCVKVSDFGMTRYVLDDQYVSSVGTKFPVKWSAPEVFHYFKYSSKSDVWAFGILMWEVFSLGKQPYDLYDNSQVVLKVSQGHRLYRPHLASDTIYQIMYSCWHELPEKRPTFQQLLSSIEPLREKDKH
As to the kind of experiment: Inhibition of a panel of kinases (in vitro HotSpot kinase assay, 33P-ATP, 1 μM ATP), other kinases. The note with it: BMX wild-type, read-out: BMX-WT IC50. The procedure: Example 63: Inhibition of a Panel of Kinases The degree of inhibition of a panel of kinases is determined using the in vitro HotSpot kinase assay (purified enzymes, ^33P-ATP, an appropriate substrate and 1 μM ATP).

Assay [3] concerns the target T3, Btk (Homo sapiens, UniProt Q06187).
T3 construct: purified from insect cells as a full-length construct containing a N-terminal 6X-His tag; His6 (N); made in house; host or cells: insect cells (Method C)
As to the kind of experiment: Btk in vitro inhibitory activity (one of Method A TR-FRET, Method B electrophoretic mobility shift, Method C radiometric filter binding). The note with it: wild-type Btk; read-out: Btk-WT IC50. Summed up:
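Method A: TR-FRET with 0.5 nM Btk at [ATP]=Km, EDTA-quenched, 665/615 nm ratio; Ki(app) converted to IC50. Method B: 1 nM full-length His6 human BTK, 1 μM FAM peptide, pH 7.5, mobility-shift product/sum ratio, 12-point 4-parameter fit. Method C: radiometric filter binding, 8 nM His-tagged BTK, 0.2 mg/mL poly-Glu-Tyr.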
(A gel shift assay detects complexes by their altered migration in electrophoresis.)

T3 sequence (Q06187 whole entry): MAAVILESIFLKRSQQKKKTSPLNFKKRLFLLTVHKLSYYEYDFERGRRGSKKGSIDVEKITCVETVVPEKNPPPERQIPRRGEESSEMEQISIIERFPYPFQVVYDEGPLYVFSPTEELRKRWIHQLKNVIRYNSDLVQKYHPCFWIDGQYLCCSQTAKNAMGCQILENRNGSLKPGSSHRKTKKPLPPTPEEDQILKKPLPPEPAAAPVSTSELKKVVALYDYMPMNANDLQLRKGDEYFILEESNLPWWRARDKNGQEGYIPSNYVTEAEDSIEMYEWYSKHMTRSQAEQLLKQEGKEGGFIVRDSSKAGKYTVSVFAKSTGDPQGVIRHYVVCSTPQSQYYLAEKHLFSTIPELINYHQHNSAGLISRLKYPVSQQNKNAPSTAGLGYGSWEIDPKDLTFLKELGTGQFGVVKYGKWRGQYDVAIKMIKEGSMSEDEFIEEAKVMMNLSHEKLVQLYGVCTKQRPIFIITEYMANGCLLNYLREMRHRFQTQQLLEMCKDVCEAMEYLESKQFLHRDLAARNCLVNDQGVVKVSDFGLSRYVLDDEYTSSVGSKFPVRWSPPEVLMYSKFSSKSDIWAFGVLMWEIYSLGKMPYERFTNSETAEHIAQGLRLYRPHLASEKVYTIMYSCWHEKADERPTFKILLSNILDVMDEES

On to `OCc1ccc(-c2ccnc3[nH]nc(N[C@H]4CC[C@H](O)CC4)c23)cc1F` [Compound 11], for which the TEC/Btk in assay [1] (ratio of TEC IC50 to Btk IC50 (selectivity)) was determined as 10. Further, the IC50 (as a rule, the concentration that gives 50% inhibition) in assay [2] is 2.58 µM.

Consider `Cc1nc(C(=O)NCc2ccc(-c3ccnc4[nH]nc(N[C@@H]5CC[C@H](C)N(C(=O)N(C)C)C5)c34)cc2F)oc1C` [Example 194, (2S,5R)-5-{[4-(4-{[(4,5-dimethyl-1,3-oxazole-2-carbonyl)amino]methyl}-3-fluorophenyl)-1H-pyrazolo[3,4-b]pyridin-3-yl]amino}-N,N,2-trimethylpiperidine-1-carboxamide], for which, in assay [2], the 50% inhibitory concentration (IC50) turned out to be 4.86 µM.

Take `CC(=O)N[C@@H]1CCN(c2n[nH]c3nccc(-c4ccc(CNC(=O)c5nc6c(o5)CCCC6)c(F)c4)c23)C1` [Example 198, N-[(4-{3-[(3R)-3-acetamidopyrrolidin-1-yl]-1H-pyrazolo[3,4-b]pyridin-4-yl}-2-fluorophenyl)methyl]-4,5,6,7-tetrahydro-1,3-benzoxazole-2-carboxamide]: the IC50 in assay [3] was 0.137 µM; in assay [2], 3.18 µM.

Turning to `C[C@@H](NC(=O)c1nc(C(C)(C)C)no1)c1ccc(-c2ccnc3[nH]nc(NC4CCOC4)c23)cc1` (stereo partly drawn) [Example 217, 3-tert-butyl-N-[(1R)-1-(4-{3-[(oxolan-3-yl)amino]-1H-pyrazolo[3,4-b]pyridin-4-yl}phenyl)ethyl]-1,2,4-oxadiazole-5-carboxamide], the IC50 in assay [3] was 0.00645 µM; in assay [2], 6.81 µM.

In the case of `C[C@@H](NC(=O)c1nc(C(C)(C)C)no1)c1ccc(-c2ccnc3[nH]nc(NC4CCOCC4)c23)cc1` [Example 218, 3-tert-butyl-N-[(1R)-1-(4-{3-[(oxan-4-yl)amino]-1H-pyrazolo[3,4-b]pyridin-4-yl}phenyl)ethyl]-1,2,4-oxadiazole-5-carboxamide], the IC50 in assay [3] was 0.0191 µM; in assay [2] it was 6.6 µM.

Take `C[C@@H](NC(=O)c1noc(C(C)(C)C)n1)c1ccc(-c2ccnc3[nH]nc(C4=CCCN(C(=O)N(C)C)C4)c23)cc1` [Example 254, 5-[4-(4-{(1R)-1-[(5-tert-butyl-1,2,4-oxadiazole-3-carbonyl)amino]ethyl}phenyl)-1H-pyrazolo[3,4-b]pyridin-3-yl]-N,N-dimethyl-3,6-dihydropyridine-1(2H)-carboxamide]: the results for the IC50 in assay [3] and in assay [2] were 0.0408 µM and 9.08 µM, respectively.

Turning to `Cc1c(NC(=O)c2noc(C(C)(C)C)n2)cccc1-c1ccnc2[nH]nc(N[C@@H]3CCNC3)c12` [Example 266, 5-tert-butyl-N-[2-methyl-3-(3-{[(3R)-pyrrolidin-3-yl]amino}-1H-pyrazolo[3,4-b]pyridin-4-yl)phenyl]-1,2,4-oxadiazole-3-carboxamide], the IC50 in assay [2] is 5.04 µM.

With `CC(C)(C)c1ccc(C(=O)NCc2ccc(-c3ccnc4[nH]nc(NC5CCNC5)c34)cn2)cc1` (stereo not shown) [Example 268, 4-tert-butyl-N-[(5-{3-[(pyrrolidin-3-yl)amino]-1H-pyrazolo[3,4-b]pyridin-4-yl}pyridin-2-yl)methyl]benzamide], the IC50 in assay [1] is 4.47 µM; in assay [2] it was 3.02 µM.

Take `CC(C)(C)c1nc(C(=O)NCc2ccc(-c3ccnc4[nH]nc(C[C@H]5CCNC5)c34)cc2F)no1` [Example 274, (R)-5-tert-butyl-N-[(2-fluoro-4-{3-[(pyrrolidin-3-yl)methyl]-1H-pyrazolo[3,4-b]pyridin-4-yl}phenyl)methyl]-1,2,4-oxadiazole-3-carboxamide]: the values for the IC50 in assay [3] and in assay [2] were 0.147 µM and 8.43 µM, respectively.

`CC(C)(C)c1nc(C(=O)NCc2ccc(-c3ccnc4[nH]nc(C5CCNC5)c34)cc2F)no1` (stereo not shown) [Example 278, 5-tert-butyl-N-({2-fluoro-4-[3-(pyrrolidin-3-yl)-1H-pyrazolo[3,4-b]pyridin-4-yl]phenyl}methyl)-1,2,4-oxadiazole-3-carboxamide]: the IC50 in assay [3] was 0.0935 µM; in assay [2], 7.86 µM.

For `CC(C)c1cc(C(=O)NCc2ccc(-c3ccnc4[nH]nc(N[C@@H]5CCCN(C(=O)N(C)C)[C@@H]5C)c34)cc2F)no1` [Example 305, (2R,3R)-3-({4-[3-fluoro-4-({[5-(propan-2-yl)-1,2-oxazole-3-carbonyl]amino}methyl)phenyl]-1H-pyrazolo[3,4-b]pyridin-3-yl}amino)-N,N,2-trimethylpiperidine-1-carboxamide], the IC50 in assay [3] came to 0.677 µM; in assay [2], 9.58 µM.

As for `C[C@@H]1[C@H](Nc2n[nH]c3nccc(-c4ccc(CNC(=O)c5cc(C(C)(C)O)on5)c(F)c4)c23)CCCN1C(=O)N(C)C` [Example 316, (2R,3R)-3-({4-[3-fluoro-4-({[5-(2-hydroxypropan-2-yl)-1,2-oxazole-3-carbonyl]amino}methyl)phenyl]-1H-pyrazolo[3,4-b]pyridin-3-yl}amino)-N,N,2-trimethylpiperidine-1-carboxamide], the IC50 in assay [2] came to 8.66 µM.

With `C[C@@H]1[C@H](Nc2n[nH]c3nccc(-c4ccc(CNC(=O)c5cc(C(C)(C)N)on5)c(F)c4)c23)CCCN1C(=O)N(C)C` [Example 317, (2R,3R)-3-({4-[4-({[5-(2-aminopropan-2-yl)-1,2-oxazole-3-carbonyl]amino}methyl)-3-fluorophenyl]-1H-pyrazolo[3,4-b]pyridin-3-yl}amino)-N,N,2-trimethylpiperidine-1-carboxamide], the IC50 in assay [2] came to 6.55 µM.

Consider `CN(C)C(=O)N1CC[C@@H](Nc2n[nH]c3nccc(-c4ccc(CNC(=O)c5cc(Cl)on5)c(F)c4)c23)C1` [Example 343, 5-chloro-N-{[4-(3-{[(3R)-1-(dimethylcarbamoyl)pyrroli-din-3-yl]amino}-1H-pyrazolo[3,4-b]pyridin-4-yl)-2-fluorophenyl]methyl}-1,2-oxazole-3-carboxamide], for which the IC50 in assay [2] stood at 1.72 µM.

For `O=C(NCc1ccc(-c2ccnc3[nH]nc(N[C@@H]4CCNC4)c23)cc1F)c1cc(-c2ccccc2)on1` [Example 344, (R)-N-[(2-fluoro-4-{3-[(pyrrolidin-3-yl)amino]-1H-pyrazolo[3,4-b]pyridin-4-yl}phenyl)methyl]-5-phenyl-1,2-oxazole-3-carboxamide], in assay [2], the IC50 turned out to be 5.67 µM.

In the case of `C[C@@H](NC(=O)c1cc(C(C)(C)O)on1)c1ccc(-c2ccnc3[nH]nc(NC4CCS(=O)(=O)CC4)c23)cc1` [Example 385, N-[(1R)-1-(4-{3-[(1,1-dioxo-1λ^6-thian-4-yl)amino]-1H-pyrazolo[3,4-b]pyridin-4-yl}phenyl)ethyl]-5-(2-hydroxypropan-2-yl)-1,2-oxazole-3-carboxamide], in assay [2], the IC50 is 9.78 µM.

On to `C[C@@H](NC(=O)c1cc(C(C)(C)O)on1)c1ccc(-c2ccnc3[nH]nc(NC4CCCCC4)c23)cc1` [Example 399, N-[(1R)-1-{4-[3-(cyclohexylamino)-1H-pyrazolo[3,4-b]pyridin-4-yl]phenyl}ethyl]-5-(2-hydroxypropan-2-yl)-1,2-oxazole-3-carboxamide], for which the values for the IC50 in assay [1] and in assay [2] were 9.27 µM and 4.32 µM, respectively.

Take `C[C@@H](NC(=O)c1cc(C(C)(C)O)on1)c1ccc(-c2ccnc3[nH]nc(NC4CCOCC4)c23)cc1` [Example 400, 5-(2-hydroxypropan-2-yl)-N-[(1R)-1-(4-{3-[(oxan-4-yl)amino]-1H-pyrazolo[3,4-b]pyridin-4-yl}phenyl)ethyl]-1,2-oxazole-3-carboxamide]: the IC50 in assay [2] came to 5.2 µM.
